The results in this text go back to patent publication EP0812839A1, “Irreversible HIV protease inhibitors, compositions containing same and process for the preparation thereof” (LG Chemical Limited, priority 1996, dated 1997).

The target of series [1] is T1, HIV-1 protease (Human immunodeficiency virus type 1 group M subtype B, UniProt P04585).
T1 construct: addition of 2.6nM of HIV-1 protease
Put plainly: Assay for inhibitory effect on HIV protease (time-dependent inactivation, HPLC readout of oligopeptide substrate cleavage). The format is biochemical. The following applies: second order rate constant; 2.6nM HIV-1 protease; 50mM sodium acetate, pH 0.5; KINSIM/FITSIM program. Here is the method:
The inhibitory effect on HIV protease of the compounds of the present invention was determined by the following method.
To a buffer solution comprising 50mM sodium acetate, pH 0.5, 1mM dithiothreitol(DTT), 1mM ethylenediamine-tetraacetate (EDTA), 0.75M ammonium sulfate and 0.1% NP 40(NONIGET P-40; Sigma Chemical Co., U.S.A.) was added a measured amount of a compound selected from Compound Nos. 1 to 12 to prepare a preincubation solution. Inhibition reaction was started with the addition of 2.6nM of HIV-1 protease to the preincubation solution. Each of 10µl sample of the reaction solution taken at a given time interval was added to 80µl of assay solution containing […] of reaction substrate in the same buffer solution as above to assay for the residual enzyme activity. In this context, an oligopeptide consisting of 11 amino acids, i.e., H-His-Lys-Ala-Arg-Val-Leu-Phe-(p-NO2)-(Glu-Ala-Ile-Ser-NH2), was used as a reaction substrate, which oligopeptide was to be cleaved in two by the breakage of amide bond between Leu and Phe-(P-NO2) upon the attack of HIV protease. The reaction rate was determined by subjecting the substrate before the reaction and the product after the reaction to HPLC separation and then measuring the relative amount of the product, using the strong absorbance of (p-NO2)-Phe at 280nm. The amounts of reduction in enzyme activity according to the elapsed time were measured and the natural logarithmic values(ln) of the measured amounts were plotted against time to obtain a linear graph and kobs was calculated from the slope of the linear graph.
The inhibition constant was calculated according to the following equation: (1)/(kobs)=(1)/(kina)+(KI)/(kina)(1)/([I]) [formula] wherein: kobs is a rate constant indicating the rate of reduction in enzyme activity according to the elapsed time under the presence of a given concentration of inhibitor, kina is a rate constant indicating the rate of chemical reaction forming covalent bond between an enzyme and an inhibitor in Michaelis-Menten complex, KI is an inhibition constant indicating the dissociation rate of Michaelis-Menten complex into an enzyme and an inhibitor, and [I] means the inhibitor concentration.
The above equation is applicable to an experiment carried out under the condition in which the concentration of inhibitor is far higher than that of enzyme (Steady State Kinetic). […] The inhibition constants KI and kina and second order rate constant kina/KI were obtained by inputting the value of [E]/([E]+[EI]+[EI']) into KINSIM/FITSIM program. In case that second order rate constant kina/KI is larger than 10^9, it is hard to calculate the exact values by KINSIM/FITSIM program [Williams, J.W. and Morrison, J.F., Methods, Enzymol., 63, 437-466([…]); and Zimmerle, C.T. and Frieden, C., J. Biochem., 258, 381-387(1989)].

Series [2] relates to HIV-1. Put plainly: Anti-viral activity: syncytium formation (Sup T1) or reverse transcriptase assay (H9). The format is cell-based. As to conditions: Human immunodeficiency virus 1, concentration that inhibits the proliferation of HIV by 50%, H9 or Sup T1 cell lines, 200 TCID50 of HIV-1. As for the experimental part: The anti-viral activity of the compounds of the present invention was determined by measuring the concentration of the compounds that inhibits the proliferation of HIV by 50%(IC50) through a survey for syncytium formation or reverse transcriptase assay.
1 x 10^5 cells of each of H9(ATCC HTB 176) and Sup T1 cell lines were added to the wells of a 24-well microtiter plate and various concentrations of the compounds of the present invention were added thereto. 200 TCID50(200-fold of 50% tissue culture infection dose) of HIV-1 inoculum and rpmi-1640 medium(Sigma Chemical Co., U.S.A) were added successively to the wells and the plate was incubated at 37°C. In case of Sup T1, the number of syncytium formed was investigated after 3 to 9 days. IC50 of each compound was determined by measuring the concentration of inhibitor that can reduce the number of syncytium by 50% compared with those formed in the same condition without the inhibitor.
In case of H9, three-quarters(3/4) of the culture medium in volume was refreshed every 3 days; and after 9 days, 6ml of the culture fluid was taken and 2.5ml of 30% polyethyleneglycol(PEG, M.W. 6000-8000) and 0.4M NaCl were added thereto. The resulting solution was allowed to stand at 0°C overnight to precipitate virus particles. The solution was centrifuged at 2000rpm for 45 minutes, the supernatant was discarded therefrom and the precipitate was diluted with 20µl of a reverse transcriptase suspension buffer(50mM tris-HCl, pH 7.5, 1mM dithiothreitol, 20% glycerol, 0.25M KCl and 0.25% Triton X-100). The resulting suspension was stored in an Effendorf tube at -70°C until used. A procedure of freezing said virus suspension for 2 minutes in dry ice and thawing same at 37°C for 2 minutes was repeated three times and the resulting suspension was centrifuged at 4°C. The resulting supernatant was used in carrying out the reverse transcriptase assay.
10µl of the said viral suspension was added to a solution of: 10µl of buffer solution(250mM tris-HCl, pH 7.5, 37.5mM MgCl2, 0.25% triton X-100), 1.2µl of 200mM dithiothreitol, 5µl of 100µM oligo(dT)-poly(A)(Boeringer Manheim, 12-18 oligomer), 1µl(1µCi) of ^3H-TTP(Thymidinetri-phosphate) and 23.6µl of water; and the resulting mixture was placed at 37°C. After 1 hour, the mixture was poured onto a WHATMAN DEB1 filter and the filter was washed three times with 5ml of 2 x SSC buffer solution(17.53g of sodium chloride, 8.82g of sodium citrate, pH 7.0, 1 liter of water) for about 10 minutes each time and twice with 95% methanol for 10 seconds. The filter was put onto aluminum foil and dried with an infra-red lamp. The amount of radioactivity was counted using a liquid scintillation counter.

Series [3] has as its system H9 cell or Sup T1 cell. As to the kind of experiment: Cytotoxicity by trypan blue dye exclusion. The format is cell-based. As to conditions: concentration that causes death of cells by 50%, 0.1µM to 100µM tested.
Procedure: The medium was refreshed every 3 days and the extent of cell proliferation was observed using Hemacytometer according to the trypan blue dye exclusion technique which is well known in the art. CT50(i.e., concentration that causes death of cells by 50%) was determined.

`CC(C)[C@@H](Cc1ccccc1)NC(=O)OC[C@@H]1O[C@@H]1[C@H](Cc1ccccc1)NC(=O)[C@H](CC(N)=O)NC(=O)c1ccc2ccccc2n1` [Example 1, 4S-[N-(2-quinolinecarbonyl)-L-asparaginyl]amino-(3R,2S)-epoxy-5-phenylpentyl N-2R-(1-phenyl-3-methylbutyl) carbamate]: the kina/KI in series [1] is listed as 10^9 - 10^10 min^-1M^-1. Further, the midpoint of inhibition in series [2], the IC50, lay at 125 nM. In series [3], the CT50 was above 10 µM.
The matching figures for `CC(C)[C@H](NC(=O)OC[C@@H]1O[C@@H]1[C@H](Cc1ccccc1)NC(=O)[C@H](CC(N)=O)NC(=O)c1ccc2ccccc2n1)c1ccccc1` [Example 2]: 10^9 - 10^10 min^-1M^-1, 130 nM and above 10 µM.
On the same counts, the results for `CC(C)C(NC(=O)OC[C@@H]1O[C@@H]1[C@H](Cc1ccccc1)NC(=O)[C@H](CC(N)=O)NC(=O)c1ccc2ccccc2n1)C(C)C` [Example 3] are 10^9 - 10^10 min^-1M^-1, 110 nM and above 10 µM.
In the case of `CC(C)[C@@H](Cc1ccccc1)NC(=O)OC[C@@H]1O[C@@H]1[C@H](Cc1ccccc1)NC(=O)[C@@H](NC(=O)OCc1ccccc1)C(C)(C)S(C)(=O)=O` [Example 4, 4S-[(N-benzyloxycarbonyl)-β-methanesulfonyl-L-valinyl]amino-(3R,2S)-epoxy-5-phenyl-1-pentyl N-2R-(1-phenyl-3-methylbutyl) carbamate], the kina/KI in series [1] is on record as 10^9 - 10^10 min^-1M^-1. Moreover, the half-maximal inhibitory concentration (IC50) (usually the concentration needed to halve the response being measured) in series [2] was 15 nM. This compound returned a CT50 in series [3] above 10 µM.
On the same counts, the results for `CC(C)[C@H](NC(=O)OC[C@@H]1O[C@@H]1[C@H](Cc1ccccc1)NC(=O)[C@@H](NC(=O)OCc1ccccc1)C(C)(C)S(C)(=O)=O)c1ccccc1` [Example 5] are 10^9 - 10^10 min^-1M^-1, 50 nM and above 10 µM.
The matching figures for `CC(C)C(NC(=O)OC[C@@H]1O[C@@H]1[C@H](Cc1ccccc1)NC(=O)[C@@H](NC(=O)OCc1ccccc1)C(C)(C)S(C)(=O)=O)C(C)C` [Example 6]: 10^9 - 10^10 min^-1M^-1, 50 nM and above 10 µM.
The matching figures for `CC(C)[C@@H](Cc1ccccc1)NC(=O)OC[C@@H]1O[C@@H]1[C@H](Cc1ccccc1)NC(=O)[C@@H](NC(=O)c1ccc2ccccc2n1)C(C)(C)S(C)(=O)=O` [Example 7, 4S-[N-(2-quinolinecarbonyl)-β-methanesulfony]-L-valinyl]amino-(3R,2S)-epoxy-5-pheny]-1-pentyl N-2S-(1-phenyl-3-methylbutyl) carbamate]: 10^9 - 10^10 min^-1M^-1, 20 nM and above 10 µM.
Turning to `CC(C)[C@H](NC(=O)OC[C@@H]1O[C@@H]1[C@H](Cc1ccccc1)NC(=O)[C@@H](NC(=O)c1ccc2ccccc2n1)C(C)(C)S(C)(=O)=O)c1ccccc1` [Example 8], the kina/KI in series [1] is 10^9 - 10^10 min^-1M^-1. The compound also gave an IC50 in series [2] of 100 nM. This compound also had a CT50 in series [3] above 10 µM.
The matching figures for `CC(C)C(NC(=O)OC[C@@H]1O[C@@H]1[C@H](Cc1ccccc1)NC(=O)[C@@H](NC(=O)c1ccc2ccccc2n1)C(C)(C)S(C)(=O)=O)C(C)C` [Example 9]: 10^9 - 10^10 min^-1M^-1, 80 nM and above 10 µM.
The matching figures for `CC(C)[C@@H](Cc1ccccc1)NC(=O)OC[C@@H]1O[C@@H]1[C@H](Cc1ccccc1)NC(=O)[C@@H](NC(=O)COc1cccc2cnccc12)C(C)(C)S(C)(=O)=O` [Example 10, 4S-[N-(5-isoquinolinyloxymethylenecarbonyl)-β-methanesulfonyl-L-valinyl]amino-(3R,2S)-epoxy-5-phenyl-1-pentyl N-2R-(1-phenyl-3-methylbutyl) carbamate]: 10^9 - 10^10 min^-1M^-1, 12 nM and above 10 µM.
On the same counts, the results for `CC(C)[C@H](NC(=O)OC[C@@H]1O[C@@H]1[C@H](Cc1ccccc1)NC(=O)[C@@H](NC(=O)COc1cccc2cnccc12)C(C)(C)S(C)(=O)=O)c1ccccc1` [Example 11] are 10^9 - 10^10 min^-1M^-1, 15 nM and above 10 µM.
Consider `CC(C)C(NC(=O)OC[C@@H]1O[C@@H]1[C@H](Cc1ccccc1)NC(=O)[C@@H](NC(=O)COc1cccc2cnccc12)C(C)(C)S(C)(=O)=O)C(C)C` [Example 12], for which the kina/KI in series [1] was 10^9 - 10^10 min^-1M^-1. This compound displayed an IC50 in series [2] of 50 nM. In series [3], the CT50 is above 10 µM.
